Reference: article PMC12598616, “Design and optimization of caspase-1-responsive fluorescent probes for pyroptosis imaging and anti-pyroptosis drug screening” (Chemical Science, 2025)

How the values were obtained:
[1] = tested on: activated Cas-1 in primary peritoneal macrophages; assay: High-content screening / fluorescence imaging for caspase-1 modulators in primary peritoneal macrophages; format: cell-based, mouse; conditions: natural product 10 μM with Nig 10 μM 2 h after LPS 4 h; FPy1 5 μM
Text: The efficient and rapid discovery of Cas-1 modulators is of significant importance considering the therapeutic potential of Cas-1 in various diseases.[39,40] Therefore, we employed FPy1 to construct a high-content screening system aimed at identifying Cas-1 modulators. The level of activated Cas-1 in cells is influenced by multiple factors. To reduce the impact of factors that affect Cas-1 activation in cells, we utilized the NLRP3 inflammasome-mediated Cas-1 activation model, administering the drug during the second stage where the zymogen was converted into activated Cas-1. MCC950, a selective NLRP3 inflammasome inhibitor that could suppress Cas-1 activation, was selected as the positive drug.[41] […] To validate the efficacy of the Cas-1 modulator screening system (Fig. 6a), we first observed the fluorescence images of PMs stained with FPy1 (5 μM) in the control group, model group, and positive drug group. […] Subsequently, the impact of 25 natural products (10 μM) on activated Cas-1 were studied using high-content analysis (Fig. S20). […] To determine whether deoxyshikonin directly binds to Cas-1 and inhibits its activity, we conducted fluorescence detection following co-incubation of deoxyshikonin, FPy1 and Cas-1. […]
Harvested rat discs were fixed in 4 % buffered paraformaldehyde for 24 hours, decalcified in 10 % ethylenediaminetetraacetic acid (EDTA, Solarbio, E8030) solution for 1 month, embedded in paraffin, and sectioned at a thickness of 5 μm. […] Stained sections were evaluated by three independent raters, blinded to the research protocol, and measurements were averaged for statistical analysis. […]
In vivo fluorescence imaging of intervertebral disc degeneration
Twelve rats were modeled with needle puncture-induced intervertebral disc degeneration at the Co5/6, Co6/7 and Co 7/8 levels. […] In vivo fluorescence images were acquired using an in vivo Imaging System (PerkinElmer). […]
In vivo fluorescence imaging of osteoarthritis […]

Cas-1 = assay: Fluorescence detection after co-incubation of deoxyshikonin, FPy1 and Cas-1; format: biochemical, human
Text: The efficient and rapid discovery of Cas-1 modulators is of significant importance considering the therapeutic potential of Cas-1 in various diseases.[39,40] Therefore, we employed FPy1 to construct a high-content screening system aimed at identifying Cas-1 modulators. The level of activated Cas-1 in cells is influenced by multiple factors. To reduce the impact of factors that affect Cas-1 activation in cells, we utilized the NLRP3 inflammasome-mediated Cas-1 activation model, administering the drug during the second stage where the zymogen was converted into activated Cas-1. MCC950, a selective NLRP3 inflammasome inhibitor that could suppress Cas-1 activation, was selected as the positive drug.[41] […] To validate the efficacy of the Cas-1 modulator screening system (Fig. 6a), we first observed the fluorescence images of PMs stained with FPy1 (5 μM) in the control group, model group, and positive drug group. […] Subsequently, the impact of 25 natural products (10 μM) on activated Cas-1 were studied using high-content analysis (Fig. S20). […] To determine whether deoxyshikonin directly binds to Cas-1 and inhibits its activity, we conducted fluorescence detection following co-incubation of deoxyshikonin, FPy1 and Cas-1. […] Overall, FPy1 could serve as an effective tool for the rapid identification of lead compounds that modulate Cas-1 activity within a high-content analysis platform. […]

cleaved Cas-1 = assay: Western blot of cleaved Cas-1; format: cell-based; conditions: control and treated groups

## CC(C)=CCCC1=CC(=O)c2c(O)ccc(O)c2C1=O [deoxyshikonin]
[1]
  fluorescence intensity of FPy1 relative to model group, high-content analysis: significant reduction in fluorescence intensity compared to the model group
Cas-1
  fluorescence at 585 nm in presence of compound (direct Cas-1 inhibition): the fluorescence at 585 nm was lower in the presence of deoxyshikonin
Cleaved Cas-1
  activated Cas-1 level (Western blot): significantly inhibit the activation of Cas-1, reducing activated Cas-1 levels
